The values below are quoted from earlier work in US20050186280A1, “Method for stabilizing a composition having a biologically active epidermal growth factor as an active ingredient” (Daewoong Pharm. Co., Ltd., priority 2000, published 2005).

For the series the following is noted: background statement; applied to wounds.

For the substance epidermal growth factor [EGF], the “half-life of EGF” value is listed as “about 1 hour”.
